Results on 49 molecules are retold here after the PolyMetriX glass transition set.

Structures are written as SMILES.

The molecule `*C(=O)c1ccc(Oc2c(C)cc(-c3cc(C)c(Oc4ccc(C(=O)c5ccc6nc(*)ccc6c5)cc4)c(C)c3)cc2C)cc1` (repeat unit) gave a glass transition temperature of 180.00 °C.

In the case of `*C(=O)c1ccc(Oc2ccc(-c3ccc(Oc4ccc(C(=O)c5ccc6c(c5)C(=O)N(c5ccc(Cc7ccc(N8C(=O)c9ccc(*)cc9C8=O)cc7)cc5)C6=O)cc4)cc3)cc2)cc1` (repeat unit), the glass transition temperature came out at 241.00 °C.

In the case of `*C(=O)c1ccc2c(c1)C(=O)N(c1c(C)cc(C(c3cccc(C(F)(F)F)c3)c3cc(C)c(N4C(=O)c5ccc(*)cc5C4=O)c(C)c3)cc1C)C2=O` (repeat unit), the glass transition temperature was determined as 285.00 °C.

`*C(=O)c1ccc2c(c1)C(=O)N(c1ccc(C(c3ccccc3)c3ccc(N4C(=O)c5ccc(*)cc5C4=O)cc3)cc1)C2=O` (repeat unit) gave a glass transition temperature of 282.00 °C.

`*C(=O)c1ccc2c(c1)C(=O)N(c1ccc(Cc3ccc(Cc4ccc(N5C(=O)c6ccc(*)cc6C5=O)cc4)cc3)cc1)C2=O` (repeat unit) yielded a glass transition temperature of 347.00 °C.

`*CC(O)COc1c(C)cc(C(C)(C)c2cc(C)c(O*)c(C)c2)cc1C` (repeat unit) returned a glass transition temperature of 130.00 °C.

Consider `*CC(O)COc1c(C)cc(S(=O)(=O)c2cc(C)c(O*)c(C)c2)cc1C` (repeat unit), for which the glass transition temperature was determined as 152.50 °C.

Molecule `*OP(=O)(Oc1ccc([N+](=O)[O-])cc1)Oc1c(C)cc(S(=O)(=O)c2cc(C)c(*)c(C)c2)cc1C` (repeat unit) displayed a glass transition temperature of 173.00 °C.

Regarding `*OP(=O)(Oc1ccccc1)Oc1c(C)cc(S(=O)(=O)c2cc(C)c(*)c(C)c2)cc1C` (repeat unit), the glass transition temperature turned out to be 142.00 °C.

For `*O[Si](C)(C)O[Si](C)(C)O[Si](C)(C)O[Si](C)(C)Oc1c(C)cc(-c2cc(C)c(*)c(C)c2)cc1C` (repeat unit), the glass transition temperature is -16.00 °C.

`*O[Si](C)(C)O[Si](C)(C)Oc1c(C)cc(-c2cc(C)c(*)c(C)c2)cc1C` (repeat unit): the glass transition temperature was found to be 55.00 °C.

Molecule `*Oc1c(C)cc(-c2cc(C)c(OC(=O)CCCCC(*)=O)c(C)c2)cc1C` (repeat unit) displayed a glass transition temperature of 108.00 °C.

For the molecule `*Oc1c(C)cc(-c2cc(C)c(OC(=O)CCCCCC(*)=O)c(C)c2)cc1C` (repeat unit), the glass transition temperature was 96.00 °C.

For `*Oc1c(C)cc(C(C)(C)c2cc(C)c(OC(=O)CCCCC(*)=O)c(C)c2)cc1C` (repeat unit), the glass transition temperature is 93.00 °C.

Turning to `*Oc1c(C)cc(C(C)(C)c2cc(C)c(OC(=O)CCCCCC(*)=O)c(C)c2)cc1C` (repeat unit), the glass transition temperature turned out to be 84.00 °C.

In turn, `*Oc1c(C)cc(C(c2cc(C)c(OC(*)=O)c(C)c2)(C(F)(F)F)C(F)(F)F)cc1C` (repeat unit) displayed a glass transition temperature of 208.00 °C.

`*Oc1c(C)cc(C2(c3cc(C)c(OC(=O)c4cccc(C(*)=O)c4)c(C)c3)CCC3CCCCC3C2)cc1C` (repeat unit) yielded a glass transition temperature of 261.00 °C.

In turn, `*Oc1c(C)cc(C2(c3cc(C)c(OC(=O)c4cccc(C(*)=O)c4)c(C)c3)c3ccccc3-c3ccccc32)cc1C` (repeat unit) returned a glass transition temperature of 315.00 °C.

`*Oc1c(C)cc(C2(c3cc(C)c(Oc4ccc(C(=O)c5ccc(*)cc5)cc4)c(C)c3)CCC3CCCCC3C2)cc1C` (repeat unit) registered a glass transition temperature of 251.00 °C.

In turn, `*Oc1c(C)cc(C2(c3cc(C)c(Oc4ccc(C(=O)c5cccc(C(=O)c6ccc(*)cc6)c5)cc4)c(C)c3)c3ccccc3-c3ccccc32)cc1C` (repeat unit) displayed a glass transition temperature of 229.00 °C.

`*Oc1ccc(C2(c3ccc(Oc4ccc(C(=O)Oc5c(C)cc(C(C)(C)c6cc(C)c(OC(=O)c7ccc(*)cc7)c(C)c6)cc5C)cc4)cc3)CCC(C(C)(C)C)CC2)cc1` (repeat unit) gave a glass transition temperature of 176.00 °C.

In the case of `*Oc1ccc(S(=O)(=O)c2ccc(Oc3c(C)cc(C(C)(C)c4cc(C)c(*)c(C)c4)cc3C)cc2C(O)(C(F)(F)F)C(F)(F)F)c(C(O)(C(F)(F)F)C(F)(F)F)c1` (repeat unit), the glass transition temperature came out at 187.00 °C.

The molecule `*Oc1ccc(S(=O)(=O)c2ccc(Oc3c(C)cc(C(c4cc(C)c(*)c(C)c4)(C(F)(F)F)C(F)(F)F)cc3C)c(Br)c2)cc1Br` (repeat unit) showed a glass transition temperature of 230.80 °C.

In the case of `*Oc1ccc(S(=O)(=O)c2ccc(Oc3c(C)cc(C(c4cc(C)c(*)c(C)c4)(C(F)(F)F)C(F)(F)F)cc3C)cc2)cc1` (repeat unit), the glass transition temperature was 248.00 °C.

Take `*Oc1ccc(S(=O)(=O)c2ccc3cc(S(=O)(=O)c4ccc(Oc5c(C)cc(-c6cc(C)c(*)c(C)c6)cc5C)cc4)ccc3c2)cc1` (repeat unit): the glass transition temperature amounted to 280.00 °C.

Consider `*c1c(C)cc(-c2cc(C)c(N3C(=O)c4ccc(Oc5ccc(C(C)(C)c6ccc(Oc7ccc8c(c7)C(=O)N(*)C8=O)cc6)cc5)cc4C3=O)c(C)c2)cc1C` (repeat unit), for which the glass transition temperature is 280.00 °C.

`*c1c(C)cc(-c2cc(C)c(N3C(=O)c4cccc(Oc5c(C)cc(-c6cc(C)c(Oc7cccc8c7C(=O)N(*)C8=O)c(C)c6)cc5C)c4C3=O)c(C)c2)cc1C` (repeat unit) showed a glass transition temperature of 327.00 °C.

`*c1c(C)cc(C(c2cc(C(F)(F)F)cc(C(F)(F)F)c2)c2cc(C)c(N3C(=O)c4ccc(Oc5ccc6c(c5)C(=O)N(*)C6=O)cc4C3=O)c(C)c2)cc1C` (repeat unit) returned a glass transition temperature of 281.90 °C.

Regarding `*c1c(C)cc(C)c(N2C(=O)c3cccc(Oc4c(C)cc(-c5cc(C)c(Oc6cccc7c6C(=O)N(*)C7=O)c(C)c5)cc4C)c3C2=O)c1C` (repeat unit), the glass transition temperature is 325.00 °C.

With `*c1c(C)cc(Cc2cc(C)c(N3C(=O)c4ccc(Oc5c(C)cc(-c6cc(C)c(Oc7ccc8c(c7)C(=O)N(*)C8=O)c(C)c6)cc5C)cc4C3=O)c(C)c2)cc1C` (repeat unit), the glass transition temperature came out at 420.00 °C.

`*c1cc(C(c2ccc(O)c(-n3c(=O)c4cc5c(=O)n(*)c(=O)c5cc4c3=O)c2)(C(F)(F)F)C(F)(F)F)ccc1O` (repeat unit): the glass transition temperature stood at 350.00 °C.

`*c1cc(C)c(-c2c(C)cc(-n3c(=O)c4cc5c(=O)n(*)c(=O)c5cc4c3=O)cc2C)c(C)c1` (repeat unit) had a glass transition temperature of 353.00 °C.

As to `*c1cc(C)c(/N=C/c2ccc(OCc3ccccc3COc3ccc(/C=N/c4cc(C)c(N5C(=O)c6ccc7c8ccc9c%10c(ccc(c%11ccc(c6c7%11)C5=O)c%108)C(=O)N(*)C9=O)cc4C)cc3)cc2)cc1C` (repeat unit), the glass transition temperature is 128.00 °C.

Turning to `*c1cc(CC(=O)OCC)c(*)s1` (repeat unit), the glass transition temperature turned out to be 56.70 °C.

`*c1cc(CC(=O)OCCN(CC)c2ccc(/N=N/c3ccc([N+](=O)[O-])cc3)cc2)c(*)s1` (repeat unit): the glass transition temperature came out at 102.00 °C.

Regarding `*c1cc(CCCCBr)c(*)s1` (repeat unit), the glass transition temperature was found to be 19.00 °C.

`*c1cc(Oc2c(C)cc(-c3cc(C)c(Oc4cc(N5C(=O)c6ccc(-c7ccc8c(c7)C(=O)N(*)C8=O)cc6C5=O)cc(C(F)(F)F)c4)c(C)c3)cc2C)cc(C(F)(F)F)c1` (repeat unit) had a glass transition temperature of 281.10 °C.

Turning to `*c1ccc(C(=O)Oc2c(C)cc(C(c3cccnc3)c3cc(C)c(OC(=O)c4ccc(N5C(=O)CC(Nc6ccc(NC7CC(=O)N(*)C7=O)cc6)C5=O)cc4)c(C)c3)cc2C)cc1` (repeat unit), the glass transition temperature was found to be 212.00 °C.

On to `*c1ccc(Oc2c(C)cc(-c3cc(C)c(Oc4ccc(N5C(=O)c6ccc(Oc7ccccc7Oc7ccc8c(c7)C(=O)N(*)C8=O)cc6C5=O)cc4C(F)(F)F)c(C)c3)cc2C)c(C(F)(F)F)c1` (repeat unit), for which the glass transition temperature worked out at 270.00 °C.

Take `*c1ccc(Oc2c(C)cc(C(c3cc(C)c(Oc4ccc(-n5c(=O)c6cc7c(=O)n(*)c(=O)c7cc6c5=O)cc4)c(C)c3)c3cccc4ccccc34)cc2C)cc1` (repeat unit): the glass transition temperature came to 315.00 °C.

`*c1ccc(Oc2c(C)cc(C(c3cccnc3)c3cc(C)c(Oc4ccc(N5C(=O)CC(Nc6ccc(NC7CC(=O)N(*)C7=O)cc6)C5=O)cc4)c(C)c3)cc2C)cc1` (repeat unit) displayed a glass transition temperature of 229.00 °C.

Molecule `*c1ccc(Oc2ccc(C3(c4ccc(Oc5ccc(N6C(=O)c7ccc(Oc8c(C)cc(C(C)(C)c9cc(C)c(Oc%10ccc%11c(c%10)C(=O)N(*)C%11=O)c(C)c9)cc8C)cc7C6=O)cc5)cc4)CC4CCC3C4)cc2)cc1` (repeat unit) showed a glass transition temperature of 265.00 °C.

Take `*c1ccc(Oc2ccc(N3C(=O)c4ccc(Oc5c(C)cc(-c6cc(C)c(Oc7ccc8c(c7)C(=O)N(*)C8=O)c(C)c6)cc5C)cc4C3=O)cc2)cc1` (repeat unit): the glass transition temperature turned out to be 299.00 °C.

As for `*c1ccc(Oc2ccc(N3C(=O)c4cccc(Oc5c(C)cc(-c6cc(C)c(Oc7cccc8c7C(=O)N(*)C8=O)c(C)c6)cc5C)c4C3=O)cc2)cc1` (repeat unit), the glass transition temperature was found to be 298.00 °C.

Turning to `*c1ccc(Oc2ccc(Oc3ccc(N4C(=O)c5ccc(Oc6c(C)cc(C(C)(C)c7cc(C)c(Oc8ccc9c(c8)C(=O)N(*)C9=O)c(C)c7)cc6C)cc5C4=O)cc3)c(C(C)(C)C)c2)cc1` (repeat unit), the glass transition temperature was 244.00 °C.

With `*c1ccc2c(c1)C(=O)N(c1c(C)cc(-c3cc(C)c(N4C(=O)c5ccc(C(*)(C(F)(F)F)C(F)(F)F)cc5C4=O)c(C)c3)cc1C)C2=O` (repeat unit), the glass transition temperature is 370.50 °C.

In turn, `*c1ccc2c(c1)C(=O)N(c1c(C)cc(C(c3cc(C(F)(F)F)cc(C(F)(F)F)c3)c3cc(C)c(N4C(=O)c5ccc(C(*)(C(F)(F)F)C(F)(F)F)cc5C4=O)c(C)c3)cc1C)C2=O` (repeat unit) had a glass transition temperature of 288.00 °C.

Molecule `*c1ccc2c(c1)C(=O)N(c1cc(C)c(-c3c(C)cc(N4C(=O)c5ccc(C(*)(C(F)(F)F)C(F)(F)F)cc5C4=O)cc3C)c(C)c1)C2=O` (repeat unit) showed a glass transition temperature of 346.00 °C.

As for `*c1cccc(N2C(=O)c3ccc(Oc4c(C)cc(-c5cc(C)c(Oc6ccc7c(c6)C(=O)N(*)C7=O)c(C)c5)cc4C)cc3C2=O)c1` (repeat unit), the glass transition temperature was 295.00 °C.
